Reference: US10189838B2, “Aza-oxo-indoles for the treatment and prophylaxis of respiratory syncytial virus infection” (Hoffmann-La Roche Inc., priority 2013, dated 2019)

System: RSV Long strain
Experiment: Viral cytopathic effect (CPE) assay, RSV Long strain
Assay type: cell-based, Respiratory Syncytial Virus
Settings: human respiratory syncytial virus, 144 h, cell viability after 6 days (Cell Counting kit-8)
Protocol: EC50: the concentration of a compound where 50% of its maximal protection effect against viral induced CPE is observed
LongStrain: an A subtype RSV strain obtained from ATCC with catalog number VR-26
To measure anti-RSV activity of compounds, 96-well plates are seeded with 6×10^3 cells per well in Dulbecco's modified Eagle's medium (DMEM) containing 10% fetal bovine serum (FBS). Cells are infected the next day with sufficient RSV Long strain (ATCC) to produce an approximately 80-90% cytopathic effect after 6 days, in the presence of serial half-log diluted compound in a total volume of […] per well. The viability of cells is assessed after 6 days using Cell Counting kit-8 (Dojindo Molecular Technologies). The absorbance at 450 nm and referenced at 630 nm is measured to determine 50% effective concentration (EC50)

| SMILES | EC50 [nM] |
| --- | --- |
| CS(=O)(=O)CCn1c(CN2C(=O)C3(CC3)c3ccncc32)cc2cnccc21 [Example 1-14, 1′-({1-[2-(Methylsulfonyl)ethyl]-1H-pyrrolo[3,2-c]pyridin-2-yl}methyl)spiro[cyclopropane-1,3′-pyrrolo[2,3-c]pyridin]-2′(1′H)-one] | 77.8 |
| CCS(=O)(=O)CCn1c(CN2C(=O)C3(CC3)c3ccncc32)cc2cc(Cl)ccc21 [Example 2-1, 1′-({5-Chloro-1-[2-(ethylsulfonyl)ethyl]-1H-indol-2-yl}methyl)spiro[cyclopropane-1,3′-pyrrolo[2,3-c]pyridin]-2′(1′H)-one] | 7.67 |
| CCS(=O)(=O)CCn1c(CN2C(=O)C3(CC3)c3ccncc32)cc2cc(Cl)cnc21 [Example 2-2, 1′-({5-Chloro-1-[2-(ethylsulfonyl)ethyl]-1H-pyrrolo[2,3-b]pyridin-2-yl}methyl)spiro[cyclopropane-1,3′-pyrrolo[2,3-c]pyridin]-2′(1′H)-one] | 19 |
| CCS(=O)(=O)CCn1c(CN2C(=O)C3(CC3)c3cccnc32)cc2cc(Cl)ccc21 [Example 2-3, 1′-({5-Chloro-1-[2-(ethylsulfonyl)ethyl]-1H-indol-2-yl}methyl)spiro[cyclopropane-1,3′-pyrrolo[2,3-b]pyridin]-2′(1′H)-one] | 247 |
| CS(=O)(=O)CCn1c(CN2C(=O)C3(CCC3)c3ccncc32)cc2cc(Cl)cnc21 [Example 2-4, 1′-({5-Chloro-1-[2-(methylsulfonyl)ethyl]-1H-pyrrolo[2,3-b]pyridin-2-yl}methyl)spiro[cyclobutane-1,3′-pyrrolo[2,3-c]pyridin]-2′(1′H)-one] | 28.8 |
| CS(=O)(=O)CCn1c(CN2C(=O)C3(CC3)c3cccnc32)cc2cc(Cl)ccc21 [Example 2-5, 1′-({5-Chloro-1-[2-(methylsulfonyl)ethyl]-1H-indol-2-yl}methyl)spiro[cyclopropane-1,3′-pyrrolo[2,3-b]pyridin]-2′(1′H)-one] | 169 |
| CS(=O)(=O)CCn1c(CN2C(=O)C3(CC3)c3cc(F)ccc32)cc2cc(Cl)cnc21 [Example 2-7, 1′-({5-Chloro-1-[2-(methylsulfonyl)ethyl]-1H-pyrrolo[2,3-b]pyridin-2-yl}methyl)-5′-fluorospiro[cyclopropane-1,3′-indol]-2′(1′H)-one] | 750 |
| CS(=O)(=O)CCn1c(CN2C(=O)C3(CCCC3)c3ccncc32)cc2cc(Cl)cnc21 [Example 2-8, 1′-({5-Chloro-1-[2-(methylsulfonyl)ethyl]-1H-pyrrolo[2,3-b]pyridin-2-yl}methyl)spiro[cyclopentane-1,3′-pyrrolo[2,3-c]pyridin]-2′(1′H)-one] | 919 |
| CS(=O)(=O)CCn1c(CN2C(=O)C3(CC3)c3ccncc32)cc2nc(Cl)ccc21 [Example 2-9, 1′-({5-Chloro-1-[2-(methylsulfonyl)ethyl]-1H-pyrrolo[3,2-b]pyridin-2-yl}methyl)spiro[cyclopropane-1,3′-pyrrolo[2,3-c]pyridin]-2′(1′H)-one] | 63 |
| CS(=O)(=O)CCn1c(CN2C(=O)C3(CC3)c3cnccc32)cc2cc(Cl)ccc21 [Example 3-1, 1′-({5-Chloro-1-[2-(methylsulfonyl)ethyl]-1H-indol-2-yl}methyl)spiro[cyclopropane-1,3′-pyrrolo[3,2-c]pyridin]-2′(1′H)-one] | 201 |
| CS(=O)(=O)CCn1c(CN2C(=O)C3(CCCC3)c3ccncc32)cc2cc(Cl)ccc21 [Example 3-2, 1′-({5-Chloro-1-[2-(methylsulfonyl)ethyl]-1H-indol-2-yl}methyl)spiro[cyclopentane-1,3′-pyrrolo[2,3-c]pyridin]-2′(1′H)-one] | 290 |
| CS(=O)(=O)CCn1c(CN2C(=O)C3(CC3)c3ccncc32)cc2cc(Cl)ccc21 [Example 3-3, 1′-({5-Chloro-1-[2-(methylsulfonyl)ethyl]-1H-indol-2-yl}methyl)spiro[cyclopropane-1,3′-pyrrolo[2,3-c]pyridin]-2′(1′H)-one] | 18 |
| CS(=O)(=O)CCCCn1c(CN2C(=O)C3(CC3)c3ccncc32)cc2cc(Cl)ccc21 [Example 4-1, 1′-({5-Chloro-1-[4-(methylsulfonyl)butyl]-1H-indol-2-yl}methyl)spiro[cyclopropane-1,3′-pyrrolo[2,3-c]pyridin]-2′(1′H)-one] | 5.9 |
| CS(=O)(=O)c1ccc(Cn2c(CN3C(=O)C4(CC4)c4ccncc43)cc3cc(Cl)ccc32)cc1 [Example 4-2, 1′-({5-Chloro-1-[4-(methylsulfonyl)benzyl]-1H-indol-2-yl}methyl)spiro[cyclopropane-1,3′-pyrrolo[2,3-c]pyridin]-2′(1′H)-one] | 275 |
| CS(=O)(=O)CCCn1c(CN2C(=O)C3(CC3)c3ccncc32)cc2cc(Cl)cnc21 [Example 4-3, 1′-({5-Chloro-1-[3-(methylsulfonyl)propyl]-1H-pyrrolo[2,3-b]pyridin-2-yl}methyl)spiro[cyclopropane-1,3′-pyrrolo[2,3-c]pyridin]-2′(1′H)-one] | 37.9 |
| Cc1cnc2c(c1)cc(CN1C(=O)C3(CC3)c3ccncc31)n2CCS(C)(=O)=O [Example 4-4, 1′-({5-Methyl-1-[2-(methylsulfonyl)ethyl]-1H-pyrrolo[2,3-b]pyridin-2-yl}methyl)spiro[cyclopropane-1,3′-pyrrolo[2,3-c]pyridin]-2′(1′H)-one] | 64 |
| CS(=O)(=O)CCCCn1c(CN2C(=O)C3(CC3)c3ccncc32)cc2nc(Cl)ccc21 [Example 4-5, 1′-({5-Chloro-1-[4-(methylsulfonyl)butyl]-1H-pyrrolo[3,2-b]pyridin-2-yl}methyl)spiro[cyclopropane-1,3′-pyrrolo[2,3-c]pyridin]-2′(1′H)-one] | 22.1 |
| O=C1N(Cc2cc3nc(Cl)ccc3n2CCCS(=O)(=O)C2CC2)c2cnccc2C12CC2 [Example 4-6, 1′-({5-Chloro-1-[3-(cyclopropylsulfonyl)propyl]-1H-pyrrolo[3,2-b]pyridin-2-yl}methyl)spiro[cyclopropane-1,3′-pyrrolo[2,3-c]pyridin]-2′(1′H)-one] | 29 |
| CS(=O)(=O)CCCCn1c(CN2C(=O)C3(CC3)c3ccncc32)cc2cc(Cl)ncc21 [Example 4-7, 1′-({5-Chloro-1-[4-(methylsulfonyl)butyl]-1H-pyrrolo[2,3-c]pyridin-2-yl}methyl)spiro[cyclopropane-1,3′-pyrrolo[2,3-c]pyridin]-2′(1′H)-one] | 27 |
| CN(Cc1ccccc1)S(=O)(=O)CCCn1c(CN2C(=O)C3(CC3)c3ccncc32)cc2cc(Cl)cnc21 [Example 4-8, N-Benzyl-3-{5-chloro-2-[(2′-oxospiro[cyclopropane-1,3′-pyrrolo[2,3-c]pyridin]-1′(2′H)-yl)methyl]-1H-pyrrolo[2,3-b]pyridin-1-yl}-N-methylpropane-1-sulfonamide] | 778 |
| O=C1N(Cc2cc3cc(Cl)ncc3n2CCCS(=O)(=O)C2CC2)c2cnccc2C12CC2 [Example 4-9, 1′-({5-Chloro-1-[3-(cyclopropylsulfonyl)propyl]-1H-pyrrolo[2,3-c]pyridin-2-yl}methyl)spiro[cyclopropane-1,3′-pyrrolo[2,3-c]pyridin]-2′(1′H)-one] | 48.7 |
| O=C1N(Cc2cc3cc(Cl)ncc3n2CCC2CSC2)c2cnccc2C12CC2 [Example 4-10, 1′-({5-Chloro-1[2-(thietan-3-yl)ethyl]-1H-pyrrolo[2,3-c]pyridin-2-yl}methyl)spiro[cyclopropane-1,3′-pyrrolo[2,3-c]pyridin]-2′(1′H)-one] | 74 |
| O=C1N(Cc2cc3cc(Cl)ncc3n2CCC2CS(=O)(=O)C2)c2cnccc2C12CC2 [Example 4-11, 1′-({5-Chloro-1-[2-(1,1-dioxidothietan-3-yl)ethyl]-1H-pyrrolo[2,3-c]pyridin-2-yl}methyl)spiro[cyclopropane-1,3′-pyrrolo[2,3-c]pyridin]-2′(1′H)-one] | 18 |
| CS(=O)(=O)CCCn1c(CN2C(=O)C3(CCC3)c3ccncc32)cc2cc(Cl)cnc21 [Example 4-12, 1′-({5-Chloro-1-[3-(methylsulfonyl)propyl]-1H-pyrrolo[2,3-b]pyridin-2-yl}methyl)spiro[cyclobutane-1,3′-pyrrolo[2,3-c]pyridin]-2′(1′H)-one] | 56.8 |
| CS(=O)(=O)CCCn1c(CN2C(=O)C3(CC3)c3ccncc32)cc2cc(Cl)ncc21 [Example 4-13, 1′-({5-Chloro-1-[3-(methylsulfonyl)propyl]-1H-pyrrolo[2,3-c]pyridin-2-yl}methyl)spiro[cyclopropane-1,3′-pyrrolo[2,3-c]pyridin]-2′(1′H)-one] | 26 |
| O=C1N(Cc2cc3nc(Cl)ccc3n2CCS(=O)(=O)C2CC2)c2cnccc2C12CC2 [Example 4-14, 1′-({5-Chloro-1-[2-(cyclopropylsulfonyl)ethyl]-1H-pyrrolo[3,2-b]pyridin-2-yl}methyl)spiro[cyclopropane-1,3′-pyrrolo[2,3-c]pyridin]-2′(1′H)-one] | 72 |
| CS(=O)(=O)CCCn1c(CN2C(=O)C3(CC3)c3ccncc32)cc2nc(Cl)ccc21 [Example 4-15, 1′-({5-Chloro-1-[3-(methylsulfonyl)propyl]-1H-pyrrolo[3,2-b]pyridin-2-yl}methyl)spiro[cyclopropane-1,3′-pyrrolo[2,3-c]pyridin]-2′(1′H)-one] | 18 |
| CS(=O)(=O)CCCCn1c(CN2C(=O)C3(CC3)c3ccncc32)cc2cc(Cl)cnc21 [Example 4-16, 1′-({5-Chloro-1-[4-(methylsulfonyl)butyl]-1H-pyrrolo[2,3-b]pyridin-2-yl}methyl)spiro[cyclopropane-1,3′-pyrrolo[2,3-c]pyridin]-2′(1′H)-one] | 54.9 |
| C[S+]([O-])CCCn1c(CN2C(=O)C3(CC3)c3ccncc32)cc2cc(Cl)ccc21 (centres unmarked) [Example 5-1, 1′-({5-Chloro-1-[3-(methylsulfinyl)propyl]-1H-indol-2-yl}methyl)spiro[cyclopropane-1,3′-pyrrolo[2,3-c]pyridin]-2′(1′H)-one] | 9 |
